# Molecular target: T1, human MGL from HeLa cells (Homo sapiens, UniProt Q99685)
# T1 construct: combining endogenously expressed MGL from HeLa cells with test compounds; endogenous in cells; host or cells: HeLa cells / cell homogenates
# T1 sequence (Q99685 1-303): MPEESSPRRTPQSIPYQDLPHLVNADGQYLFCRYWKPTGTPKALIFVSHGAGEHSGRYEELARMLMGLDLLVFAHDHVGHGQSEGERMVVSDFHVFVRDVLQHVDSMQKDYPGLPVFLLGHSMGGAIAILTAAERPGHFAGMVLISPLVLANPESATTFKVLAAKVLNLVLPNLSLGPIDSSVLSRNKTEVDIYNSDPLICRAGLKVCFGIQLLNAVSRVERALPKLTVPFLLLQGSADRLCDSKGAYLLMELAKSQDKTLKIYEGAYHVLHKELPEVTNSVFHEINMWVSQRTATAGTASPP
# Assay: In vitro MGL activity assay: [glycerol-1,3-3H]-oleyl glycerol cleavage by MGL from HeLa cells
# Format: biochemical
# Conditions: 300 nM [Glycerol-1,3-3H]-oleyl glycerol, one hour incubation
# Source text: MGL is the predominant hydrolase in HeLa cells/cell homogenates.
row,Structure (SMILES),IC50
1,"COc1ccc(C)c(C(=O)N2CCc3c(nn(C)c3-c3cc(F)c(F)c(F)c3)[C@@H]2C)n1 [Example 302, [(7S)-2,7-Dimethyl-3-(3,4,5-trifluorophenyl)-5,7-dihydro-4H-pyrazolo[3,4-c]pyridin-6-yl]-(6-methoxy-3-methyl-2-pyridyl)methanone]",312 nM
2,"COc1cccnc1C(=O)N1CCc2c(nn(C)c2-c2cc(F)c(F)c(F)c2)[C@@H]1C [Example 303, [(7S)-2,7-Dimethyl-3-(3,4,5-trifluorophenyl)-5,7-dihydro-4H-pyrazolo[3,4-c]pyridin-6-yl]-(3-methoxy-2-pyridyl)methanone]",113 nM
3,"COCc1cncc(C(=O)N2CCc3c(nn(C)c3-c3cc(F)c(F)c(F)c3)[C@@H]2C)c1 [Example 304, [(7S)-2,7-Dimethyl-3-(3,4,5-trifluorophenyl)-5,7-dihydro-4H-pyrazolo[3,4-c]pyridin-6-yl]-[5-(methoxymethyl)-3-pyridyl]methanone]",578 nM
4,"CC(C)Oc1cncc(C(=O)N2CCc3c(nn(C)c3-c3cc(F)c(F)c(F)c3)[C@@H]2C)c1 [Example 305, [(7S)-2,7-Dimethyl-3-(3,4,5-trifluorophenyl)-5,7-dihydro-4H-pyrazolo[3,4-c]pyridin-6-yl]-(5-isopropoxy-3-pyridyl)methanone]",229 nM
5,"COc1ccc(C(=O)N2CCc3c(nn(C)c3-c3cc(F)c(F)c(F)c3)[C@@H]2C)c(C)n1 [Example 306, [(7S)-2,7-Dimethyl-3-(3,4,5-trifluorophenyl)-5,7-dihydro-4H-pyrazolo[3,4-c]pyridin-6-yl]-(6-methoxy-2-methyl-3-pyridyl)methanone]",189 nM
6,"COc1ccnc(C(=O)N2CCc3c(nn(C)c3-c3cc(F)c(F)c(F)c3)[C@@H]2C)c1C [Example 307, [(7S)-2,7-Dimethyl-3-(3,4,5-trifluorophenyl)-5,7-dihydro-4H-pyrazolo[3,4-c]pyridin-6-yl]-(4-methoxy-3-methyl-2-pyridyl)methanone]",181 nM
7,"COc1cnc(C)c(C(=O)N2CCc3c(nn(C)c3-c3cc(F)c(F)c(F)c3)[C@@H]2C)c1 [Example 308, [(7S)-2,7-Dimethyl-3-(3,4,5-trifluorophenyl)-5,7-dihydro-4H-pyrazolo[3,4-c]pyridin-6-yl]-(5-methoxy-2-methyl-3-pyridyl)methanone]",115 nM
8,"COc1ccnc(C(=O)N2CCc3c(nn(C)c3-c3cc(F)c(F)c(F)c3)[C@@H]2C)c1 [Example 309, [(7S)-2,7-Dimethyl-3-(3,4,5-trifluorophenyl)-5,7-dihydro-4H-pyrazolo[3,4-c]pyridin-6-yl]-(4-methoxy-2-pyridyl)methanone]",219 nM
9,"COc1cc(C(=O)N2CCc3c(nn(C)c3-c3cc(F)c(F)c(F)c3)[C@@H]2C)cnc1C [Example 310, [(7S)-2,7-Dimethyl-3-(3,4,5-trifluorophenyl)-5,7-dihydro-4H-pyrazolo[3,4-c]pyridin-6-yl]-(5-methoxy-6-methyl-3-pyridyl)methanone]",96.3 nM
10,"COc1cnccc1C(=O)N1CCc2c(nn(C)c2-c2cc(F)c(F)c(F)c2)[C@@H]1C [Example 311, [(7S)-2,7-Dimethyl-3-(3,4,5-trifluorophenyl)-5,7-dihydro-4H-pyrazolo[3,4-c]pyridin-6-yl]-(3-methoxy-4-pyridyl)methanone]",87.1 nM
11,"COc1cc(C(=O)N2CCc3c(nn(C)c3-c3cc(F)c(F)c(F)c3)[C@@H]2C)ccn1 [Example 312, [(7S)-2,7-Dimethyl-3-(3,4,5-trifluorophenyl)-5,7-dihydro-4H-pyrazolo[3,4-c]pyridin-6-yl]-(2-methoxy-4-pyridyl)methanone]",81.7 nM
12,"C[C@H]1c2nn(C)c(-c3cc(F)c(F)c(F)c3)c2CCN1C(=O)c1cncc(-n2cccn2)c1 [Example 318, [(7S)-2,7-Dimethyl-3-(3,4,5-trifluorophenyl)-5,7-dihydro-4H-pyrazolo[3,4-c]pyridin-6-yl]-(5-pyrazol-1-yl-3-pyridyl)methanone]",178 nM
13,"Cc1ccc(-n2nccn2)c(C(=O)N2CCc3c(nn(C)c3-c3cc(F)c(F)c(F)c3)[C@@H]2C)n1 [Example 319, [(7S)-2,7-Dimethyl-3-(3,4,5-trifluorophenyl)-5,7-dihydro-4H-pyrazolo[3,4-c]pyridin-6-yl]-[6-methyl-3-(triazol-2-yl)-2-pyridyl]methanone]",255 nM
14,"C[C@H]1c2nn(C)c(-c3cc(F)c(F)c(F)c3)c2CCN1C(=O)c1cccc(-n2cccn2)n1 [Example 320, [(7S)-2,7-Dimethyl-3-(3,4,5-trifluorophenyl)-5,7-dihydro-4H-pyrazolo[3,4-c]pyridin-6-yl]-(6-pyrazol-1-yl-2-pyridyl)methanone]",79 nM

# Compounds with a lower IC50, results first:
row,IC50,Structure (SMILES)
1,38 nM,"COc1cncc(C(=O)N2CCc3c(nn(C)c3-c3cc(F)c(F)c(F)c3)[C@@H]2C)c1C [Example 313, [(7S)-2,7-Dimethyl-3-(3,4,5-trifluorophenyl)-5,7-dihydro-4H-pyrazolo[3,4-c]pyridin-6-yl]-(5-methoxy-4-methyl-3-pyridyl)methanone]"
2,20.6 nM,"COc1nccc(C(=O)N2CCc3c(nn(C)c3-c3cc(F)c(F)c(F)c3)[C@@H]2C)c1C [Example 314, [(7S)-2,7-Dimethyl-3-(3,4,5-trifluorophenyl)-5,7-dihydro-4H-pyrazolo[3,4-c]pyridin-6-yl]-(2-methoxy-3-methyl-4-pyridyl)methanone]"
3,42.4 nM,"COc1nccc(C(=O)N2CCc3c(nn(C)c3-c3cc(F)c(F)c(F)c3)[C@@H]2C)c1F [Example 315, [(7S)-2,7-Dimethyl-3-(3,4,5-trifluorophenyl)-5,7-dihydro-4H-pyrazolo[3,4-c]pyridin-6-yl]-(3-fluoro-2-methoxy-4-pyridyl)methanone]"
4,17.2 nM,"COc1nccc(C(=O)N2CCc3c(nn(C)c3-c3cc(F)c(F)c(F)c3)[C@@H]2C)c1Cl [Example 316, (3-Chloro-2-methoxy-4-pyridyl)-[(7S)-2,7-dimethyl-3-(3,4,5-trifluorophenyl)-5,7-dihydro-4H-pyrazolo[3,4-c]pyridin-6-yl]methanone]"
5,30.1 nM,"COc1ccnc(C(=O)N2CCc3c(nn(C)c3-c3cc(F)c(F)c(F)c3)[C@@H]2C)c1Cl [Example 317, (3-Chloro-4-methoxy-2-pyridyl)-[(7S)-2,7-dimethyl-3-(3,4,5-trifluorophenyl)-5,7-dihydro-4H-pyrazolo[3,4-c]pyridin-6-yl]methanone]"
6,14.8 nM,"Cc1nc(C(=O)N2CCc3c(nn(C)c3-c3cc(F)c(F)c(F)c3)[C@@H]2C)nn1-c1ccccc1 [Example 321, [(7S)-2,7-Dimethyl-3-(3,4,5-trifluorophenyl)-5,7-dihydro-4H-pyrazolo[3,4-c]pyridin-6-yl]-(5-methyl-1-phenyl-1,2,4-triazol-3-yl)methanone]"
7,34.6 nM,"Cc1nc(C(=O)N2CCc3c(nn(C)c3-c3cc(F)c(F)c(F)c3)[C@@H]2C)nn1-c1ccc(F)cc1 [Example 322, [(7S)-2,7-Dimethyl-3-(3,4,5-trifluorophenyl)-5,7-dihydro-4H-pyrazolo[3,4-c]pyridin-6-yl]-[1-(4-fluorophenyl)-5-methyl-1,2,4-triazol-3-yl]methanone]"
8,65.6 nM,"C[C@H]1c2nn(C)c(-c3cc(F)c(F)c(F)c3)c2CCN1C(=O)c1ncn(-c2ccccn2)n1 [Example 323, [(7S)-2,7-Dimethyl-3-(3,4,5-trifluorophenyl)-5,7-dihydro-4H-pyrazolo[3,4-c]pyridin-6-yl]-[1-(2-pyridyl)-1,2,4-triazol-3-yl]methanone]"

# From US11820766B2, “Monoacylglycerol lipase modulators” (Janssen Pharmaceutica NV, priority 2018, dated 2023)
